What was measured:
Format in all cases: in vivo
[1] = test system: Spodoptera frugiperda; test: Spodoptera frugiperda test, spray treatment dripping wet (corn plants); conditions: Table C2; 100 ppm; alone
Description: (§1) To produce a suitable solution, 1 part by weight of formulation is mixed with the stated amount of water and adjuvant and the concentrate is diluted with water to the desired concentration.
Spodoptera frugiperda Test
Corn plants (Zea mais) are sprayed to runoff point with the desired use concentration and populated with caterpillars of the armyworm (Spodoptera frugiperda) while the leaves are still moist.
(§2) After the desired period of time, the kill in % is determined. 100% means that all larvae have been killed; 0% means that none of the larvae have been killed. The determined kill rates are entered into Colby's formula (see above).

[2] = test system: Myzus persicae; test: Myzus persicae test, spray application dripping wet (bell pepper plants); conditions: alone; for Kill in % after 3d: Table F1; for Kill in % after 7d: Table F2
Description: (§3) Solvent: water Adjuvant: rapeseed oil methyl ester
(§4) To produce a suitable application solution, 1 part by weight of the formulation is mixed with the appropriate amount of water and the adjuvant and the concentrate is diluted with water to the desired concentration.
Bell pepper plants (Capsicum sativum) which are heavily infested by the green peach aphid (Myzus persicae) are sprayed to runoff point with the desired concentration of the application solution.
(§5) After the desired period of time, the kill in % is determined. 100% means that all aphids have been killed; 0% means that none of the aphids have been killed. The determined kill rates are entered into Colby's formula (see sheet 1).

[3] = test system: Plutella xylostella; test: Plutella xylostella test, spray treatment dripping wet (cabbage plants); conditions: alone; for Kill in % after 7d: Table B1
Description: as §1
Cabbage plants (Brassica pekinesis) are sprayed to runoff point with the desired use concentration and populated with larvae of the diamondback moth (Plutella xylostella) while the leaves are still moist.
as §2

[4] = test system: Aphis gossypii; test: Aphis gossypii test, spray application dripping wet (cotton plants); conditions: alone
Description: as §3, §4
Cotton plants (Gossypium herbaceum) which are heavily infested by the cotton aphid (Aphis gossypii) are sprayed to runoff point with the desired concentration of the application solution.
as §5

[5] = test system: Heliothis armigera; test: Heliothis armigera test, spray treatment dripping wet (cotton plants); conditions: alone; for Kill in % after 7d: Table A1; for Kill in % after 3d: Table A2
Description: as §1
Cotton plants (Gossypium hirsutum) are sprayed to runoff point with the desired use concentration and populated with caterpillars of the cotton bollworm (Heliothis armigera) while the leaves are still moist.
as §2

[6] = test system: Metopolophium dirhodum; test: Metopolophium dirhodum test, spray application dripping wet (barley plants); conditions: 100 ppm, alone
Description: as §3, §4
Metopolophium dirhodum Test
Barley plants (Hordeum vulgare) which are heavily infested by a cereal aphid (Metopolophium dirhodum) are sprayed to runoff point with the desired concentration of the application solution.
as §5

C=CCN(CC=C)C(=O)C(Cl)Cl [dichlormid, 2,2-dichloro-N,N-di-2-propenylacetamide]
0%: Kill in % after 3d [1] | Kill in % after 3d ([2]; 25 ppm) | Kill in % after 7d ([2]; 100 ppm) | Kill in % after 3d ([3]; Table B2, 100 ppm) | Kill in % after 7d ([4]; Table D1, 100 ppm) | Kill in % after 7d ([4]; Table D2, 50 ppm) | Kill in % after 7d ([5]; 100 ppm) | Kill in % after 3d ([5]; 100 ppm) | Kill in % after 7d ([6]; Table E1) | Kill in % after 7d ([6]; Table E2)

Clc1cc(Cl)nc(-c2ccccc2)n1 [fenclorim, 4,6-dichloro-2-phenylpyrimidine]
0%: Kill in % after 3d [1] | Kill in % after 3d ([2]; 25 ppm) | Kill in % after 7d ([2]; 100 ppm) | Kill in % after 7d ([3]; 25 ppm) | Kill in % after 7d ([4]; Table D1, 100 ppm) | Kill in % after 7d ([4]; Table D2, 100 ppm) | Kill in % after 3d ([5]; 100 ppm) | Kill in % after 7d ([6]; Table E1) | Kill in % after 7d ([6]; Table E2)

CC1(C)OC(c2ccco2)CN1C(=O)C(Cl)Cl (stereo not shown) [furilazole, 3-dichloroacetyl-5-(2-furanyl)-2,2-dimethyloxazolidine]
0%: Kill in % after 3d [1] | Kill in % after 3d ([2]; 100 ppm) | Kill in % after 7d ([3]; 50 ppm) | Kill in % after 7d ([4]; Table D1, 100 ppm) | Kill in % after 7d ([4]; Table D2, 100 ppm) | Kill in % after 7d ([5]; 25 ppm) | Kill in % after 3d ([5]; 50 ppm) | Kill in % after 7d ([6]; Table E1) | Kill in % after 7d ([6]; Table E2)
